Measured values published in ChEMBL document CHEMBL1201862, “PubChem BioAssay data set” (2004).
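Where inhibition never reached the appropriate level, the endpoint shown equals the highest concentration tested. Otherwise, values were interpolated linearly from a five-concentration, 48-hour dose response in 96-well plates. At the GI50, growth is halved.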 Active and inactive are the calls of the source. Cut-off read from the data, not from the text of the source: active = GI50 up to about 1.1 µM and inactive = higher.

Experiments:
Assay in all cases: NCI anticancer screen, dose series, 48 h
SF-268 = test system: SF-268
KM12 = test system: KM12
HOP-92 = test system: HOP-92
UO-31 = test system: UO-31
NCI/ADR-RES = test system: NCI/ADR-RES
SK-MEL-2 = test system: SK-MEL-2
SN12C = test system: SN12C
K562 = test system: K562
HCT-15 = test system: HCT-15
A549 = test system: A549
MCF7 = test system: MCF7
SF-539 = test system: SF-539
HCT-116 = test system: HCT-116
MOLT-4 = test system: MOLT-4
SK-OV-3 = test system: SK-OV-3
UACC-257 = test system: UACC-257
OVCAR-8 = test system: OVCAR-8
SNB-75 = test system: SNB-75
EKVX = test system: EKVX
NCI-H460 = test system: NCI-H460
UACC-62 = test system: UACC-62
CAKI-1 = test system: CAKI-1
NCI-H23 = test system: NCI-H23
MDA-MB-435 = test system: MDA-MB-435
SF-295 = test system: SF-295
CCRF-CEM = test system: CCRF-CEM
PC-3 = test system: PC-3
HOP-62 = test system: HOP-62
U-251 = test system: U-251
BT-549 = test system: BT-549
HT-29 = test system: HT-29
OVCAR-5 = test system: OVCAR-5
SK-MEL-5 = test system: SK-MEL-5
OVCAR-3 = test system: OVCAR-3
Hs-578T = test system: Hs-578T
COLO 205 = test system: COLO 205
SW-620 = test system: SW-620
786-0 = test system: 786-0
SR = test system: SR
Malme-3M = test system: Malme-3M
A498 = test system: A498
SNB-19 = test system: SNB-19
MDA-MB-231 = test system: MDA-MB-231
RXF 393 = test system: RXF 393
ACHN = test system: ACHN
NCI-H522 = test system: NCI-H522
OVCAR-4 = test system: OVCAR-4
HCC 2998 = test system: HCC 2998
HL-60 = test system: HL-60
MDA-N = test system: MDA-N
IGROV-1 = test system: IGROV-1
NCI-H226 = test system: NCI-H226
M14 = test system: M14
DU-145 = test system: DU-145
TK-10 = test system: TK-10
RPMI-8226 = test system: RPMI-8226

Question: Which GI50 (SF-268) does the source give for `C[C@]12C[C@@H](c3ccccc3)Nc3ccccc3N1C(c1ccccc1)=NO2` here?
Answer: Its GI50 is 88.5 µM (inactive).

Question: And the GI50 (KM12)?
Answer: The GI50 was 33.6 µM (inactive).

Question: And the GI50 (HOP-92)?
Answer: The GI50 was 18.5 µM (inactive).

Question: What about the GI50 (UO-31) of the same compound?
Answer: Its GI50 is 29.6 µM (inactive).

Question: And the GI50 (NCI/ADR-RES)?
Answer: The GI50 was 45.1 µM (inactive).

Question: What about the GI50 (SK-MEL-2) of the same compound?
Answer: The GI50 was 25.6 µM (inactive).

Question: What about the GI50 (SN12C) of the same compound?
Answer: The GI50 was 49.3 µM (inactive).

Question: And the GI50 (K562)?
Answer: The GI50 was 35.4 µM (inactive).

Question: And the GI50 (HCT-15)?
Answer: Its GI50 is 35.4 µM.

Question: What about the GI50 (A549) of the same compound?
Answer: The GI50 was 54.3 µM (inactive).

Question: And the GI50 (MCF7)?
Answer: Its GI50 is 31 µM (inactive).

Question: What about the GI50 (SF-539) of the same compound?
Answer: The GI50 was 33.4 µM (inactive).

Question: And the GI50 (HCT-116)?
Answer: The GI50 was 37.9 µM (inactive).

Question: What about the GI50 (MOLT-4) of the same compound?
Answer: The GI50 was 18 µM (inactive).

Question: And the GI50 (SK-OV-3)?
Answer: Its GI50 is > 100 µM (inactive).

Question: And the GI50 (UACC-257)?
Answer: The GI50 was 33.8 µM (inactive).

Question: What about the GI50 (OVCAR-8) of the same compound?
Answer: Its GI50 is 36.1 µM (inactive).

Question: What about the GI50 (SNB-75) of the same compound?
Answer: Its GI50 is 16.6 µM (inactive).

Question: What about the GI50 (EKVX) of the same compound?
Answer: The GI50 was 24.3 µM (inactive).

Question: And the GI50 (NCI-H460)?
Answer: The GI50 was 52.1 µM (inactive).

Question: What about the GI50 (UACC-62) of the same compound?
Answer: Its GI50 is 33.4 µM (inactive).

Question: What about the GI50 (CAKI-1) of the same compound?
Answer: Its GI50 is 37.1 µM (inactive).

Question: What about the GI50 (NCI-H23) of the same compound?
Answer: Its GI50 is 30.7 µM (inactive).

Question: And the GI50 (MDA-MB-435)?
Answer: The GI50 was 24.5 µM (inactive).

Question: And the GI50 (SF-295)?
Answer: The GI50 was 16 µM (inactive).

Question: What about the GI50 (CCRF-CEM) of the same compound?
Answer: Its GI50 is 35.9 µM (inactive).

Question: What about the GI50 (PC-3) of the same compound?
Answer: The GI50 was 43 µM (inactive).

Question: What about the GI50 (HOP-62) of the same compound?
Answer: The GI50 was 77.1 µM (inactive).

Question: And the GI50 (U-251)?
Answer: The GI50 was 44.2 µM (inactive).

Question: And the GI50 (BT-549)?
Answer: Its GI50 is 40.9 µM (inactive).

Question: And the GI50 (HT-29)?
Answer: Its GI50 is 30.6 µM (inactive).

Question: And the GI50 (OVCAR-5)?
Answer: The GI50 was 33.2 µM (inactive).

Question: And the GI50 (SK-MEL-5)?
Answer: The GI50 was 16.1 µM (inactive).

Question: And the GI50 (OVCAR-3)?
Answer: Its GI50 is 46.8 µM (inactive).

Question: What about the GI50 (Hs-578T) of the same compound?
Answer: Its GI50 is 77.8 µM (inactive).

Question: What about the GI50 (COLO 205) of the same compound?
Answer: Its GI50 is 19 µM (inactive).

Question: What about the GI50 (SW-620) of the same compound?
Answer: The GI50 was 61.1 µM (inactive).

Question: What about the GI50 (786-0) of the same compound?
Answer: The GI50 was 56.6 µM (inactive).

Question: And the GI50 (SR)?
Answer: Its GI50 is 1.8 µM (inactive).

Question: And the GI50 (Malme-3M)?
Answer: The GI50 was 42.9 µM (inactive).

Question: And the GI50 (A498)?
Answer: The GI50 was 43.3 µM (inactive).

Question: What about the GI50 (SNB-19) of the same compound?
Answer: Its GI50 is 89.7 µM (inactive).

Question: And the GI50 (MDA-MB-231)?
Answer: The GI50 was 45.5 µM (inactive).

Question: What about the GI50 (RXF 393) of the same compound?
Answer: The GI50 was 51.6 µM (inactive).

Question: And the GI50 (ACHN)?
Answer: Its GI50 is 33.9 µM (inactive).

Question: What about the GI50 (NCI-H522) of the same compound?
Answer: The GI50 was 35.9 µM (inactive).

Question: What about the GI50 (OVCAR-4) of the same compound?
Answer: Its GI50 is 24.9 µM (inactive).

Question: What about the GI50 (HCC 2998) of the same compound?
Answer: The GI50 was 81.3 µM (inactive).

Question: What about the GI50 (HL-60) of the same compound?
Answer: The GI50 was 46.2 µM (inactive).

Question: What about the GI50 (MDA-N) of the same compound?
Answer: The GI50 was 26.2 µM (inactive).

Question: What about the GI50 (IGROV-1) of the same compound?
Answer: Its GI50 is 38.1 µM (inactive).

Question: What about the GI50 (NCI-H226) of the same compound?
Answer: The GI50 was 32.4 µM (inactive).

Question: And the GI50 (M14)?
Answer: Its GI50 is 32.5 µM (inactive).

Question: What about the GI50 (DU-145) of the same compound?
Answer: The GI50 was 92.3 µM (inactive).

Question: And the GI50 (TK-10)?
Answer: Its GI50 is 34.4 µM (inactive).

Question: And the GI50 (RPMI-8226)?
Answer: The GI50 was 20.3 µM (inactive).
